Among the data in patent US12624018B1, “Inhibitors of RIPK2 and medical uses thereof” (Odyssey Therapeutics, Inc., priority 2022, dated 2026) are IC50 values, retold here.

Read-outs that look alike come from different tables or passages of the source.

The target in assay [1] is T1, RIPK2 enzyme (Homo sapiens, UniProt O43353).
T1 construct: purchased Carna 09-128
As to the kind of experiment: RIPK2 inhibition (ADP-Glo Kinase Assay). It is filed as biochemical. Particulars: RIPK2 5 nM, ATP 150 μM, MBP substrate, read-out: RIPK2 IC50. Summed up:
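Swine MBP substrate; compound and 5 nM RIPK2 first mixed for 30 min at room temperature; buffer pH 7.5 HEPES 50 mM with 10 mM MgCl2, 2 mM DTT, 1 mM EGTA, Brij-35, BSA.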
A general note: In ADP-Glo the light output rises with the ADP produced.

Assay [2] concerns human NOD2 signaling. As to the kind of experiment: Inhibition of human NOD2 signaling in HEK-Blue-hNOD2 cells (L18-MDP stimulated, SEAP reporter). It is filed as cell-based. As to conditions: NOD2 ligand stimulation, SEAP reporter, read-out: hNOD2 IC50. An outline of the steps:
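Read-out is SEAP absorbance at 620 nm after 3 h QUANTI-Blue development of supernatant from HEK293 cells carrying NOD2 and a SEAP reporter (12500/well). Cells got compound (10 points, 3-fold dilutions) and 0.5 ng/mL L18-MDP for 24 h at 37 °C; percent inhibition vs stimulated/unstimulated controls, 4-parameter IC50.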

Assay [3] deals with TNF-alpha secretion in human whole blood. Nature of the assay: Inhibition of TNF-alpha secretion in human whole blood (IFN-gamma primed, L18-MDP stimulated). The class given is cell-based. As to conditions: L18-MDP 100 ng/mL, read-out: Human Whole Blood TNFα IC50. As for the experimental part:
Materials: Assay medium consisted of RPMI 1640 medium (catalogue number: 11875119) and 10% heat inactivated FBS (Cytvia). U-PLEX Biomarker Assay (cat #K15067L-4) to detect levels of TNF-alpha was purchased from Meso Scale Discovery. Heparinized whole blood from healthy donors/volunteers was obtained through Research Blood Components, LLC.
Test compounds were prepared into a 10 mM DMSO solution and serially diluted into 9 points using a 3-fold dilution in a 96 well plate. A 10× working stock solution of recombinant human IFN-gamma (final concentration of 10 ng/mL) was prepared in assay medium and used to prepare a 10× solution of test compound. 20 μL of 10×IFN-gamma and test compound (or DMSO control) was added to a 96-well plate. 160 μL of heparinized whole blood obtained from healthy donors was dispensed into individual wells of the 96-well plate and placed on a plate shaker (150 rpm) and incubated for 60 min at 37° C. in a CO2 incubator. Subsequently, 20 μL of L18-MDP (final concentration of 100 ng/mL) was added to the appropriate wells and further incubated for 16 hours on a plate shaker (150 rpm) at 37° C. in a CO2 incubator. The final concentration of DMSO was 0.05% (v/v) in all wells. After incubation, 100 μL of DPBS was added per well, mixed by shaking at 500 rpm for 2 minutes, followed by centrifugation (400×g for 10 minutes) and collection of supernatants. TNF-alpha in supernatants was measured using MSD immunoassay (MesoScale Discovery). 4-parametric curve fit was used to determine the test compound concentration that results in 50% reduction of TNF-alpha concentration in supernatant relative to assay controls.

Assay [4] deals with T2, RIPK2 and XIAP protein-protein interaction (Homo sapiens, UniProt O43353).
T2 construct: the N-terminus of full-length RIPK2 was appended with the HaloTag fusion protein; expressed in transfected cells; host or cells: HEK293T
Nature of the assay: Inhibition of the interaction of RIPK2 with XIAP (NanoBRET in HEK293T cells). The class given is cell-based. As to conditions: RIPK2 HaloTag / XIAP NanoLuc, read-out: NanoBRET Scaffolding IC50. Summed up: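 HEK293T cells transiently co-transfected with HaloTag-RIPK2 (N-terminal) and XIAP-NanoLuc (C-terminal) full-length fusions, grown 24 h at 37° C. in Opti-MEM with 4% FBS. Compounds tested as 10-point 3-fold dilutions; NanoBRET ratio taken as 618 nm acceptor over 460 nm donor emission.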
On the technique in general: In BRET a luciferase serves as donor, and the signal depends on an acceptor being close.

[5] abbreviates: Homo sapiens, HEK-Blue hNOD2, HEK-Blue-hNOD2 cells.

T1 sequence (O43353 1-299 limits assumed): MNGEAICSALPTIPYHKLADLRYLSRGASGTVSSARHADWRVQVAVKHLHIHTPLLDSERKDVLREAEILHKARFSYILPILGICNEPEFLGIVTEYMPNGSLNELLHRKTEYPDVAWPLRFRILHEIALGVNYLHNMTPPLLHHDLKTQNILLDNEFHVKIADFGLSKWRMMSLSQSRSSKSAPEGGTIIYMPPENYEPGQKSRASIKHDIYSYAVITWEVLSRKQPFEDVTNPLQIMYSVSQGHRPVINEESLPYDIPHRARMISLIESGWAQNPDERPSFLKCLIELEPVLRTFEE
T2 sequence (O43353 whole entry, the tested form may be a part): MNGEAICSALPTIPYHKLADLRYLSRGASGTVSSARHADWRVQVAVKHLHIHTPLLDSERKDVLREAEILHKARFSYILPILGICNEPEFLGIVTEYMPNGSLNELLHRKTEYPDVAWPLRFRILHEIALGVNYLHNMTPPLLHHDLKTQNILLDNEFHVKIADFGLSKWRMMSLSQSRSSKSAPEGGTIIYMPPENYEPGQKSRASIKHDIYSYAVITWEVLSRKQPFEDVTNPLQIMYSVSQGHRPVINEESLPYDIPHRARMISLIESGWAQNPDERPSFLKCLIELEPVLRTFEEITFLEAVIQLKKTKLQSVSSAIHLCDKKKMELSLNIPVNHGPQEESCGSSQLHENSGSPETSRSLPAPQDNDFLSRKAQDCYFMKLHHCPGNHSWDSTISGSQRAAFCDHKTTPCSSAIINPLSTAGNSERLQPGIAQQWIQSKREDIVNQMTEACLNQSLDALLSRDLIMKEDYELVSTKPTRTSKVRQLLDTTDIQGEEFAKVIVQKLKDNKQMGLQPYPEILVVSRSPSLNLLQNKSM

Turning to `CC(C)(C)n1cc(NC(=O)Cc2ccc(Oc3ccnc4ccc(S(C)(=N)=O)cc34)c(Cl)c2)cn1` (single isomer, unassigned) [Compound 197, N-(1-(tert-butyl)-1H-pyrazol-4-yl)-2-(3-chloro-4-((6-(S-methylsulfonimidoyl)quinolin-4-yl)oxy)phenyl)acetamide], the IC50 in assay [1] is less than 2.5 nM; in assay [2] (setting [5]), 4 nM; in assay [3] (Homo sapiens, 16 h), 24 nM; in assay [4], 93 nM.

On to `Cc1cc(C(C)C(=O)Nc2cnn(C(C)(C)C)c2)ccc1Oc1ccnc2ccc(S(C)(=O)=O)cc12` (single isomer, unassigned) [Compound 215, N-(1-(tert-butyl)-1H-pyrazol-4-yl)-2-(3-methyl-4-((6-(methylsulfonyl)quinolin-4-yl)oxy)phenyl)propanamide], for which the IC50 is less than 2.5 nM in assay [1]; 3.2 nM in assay [2] (setting [5]); 55 nM in assay [3] (Homo sapiens, 16 h); 39 nM in assay [4].

With `Cc1c(Oc2ccnc3ccc(S(=N)(=O)C4CC4)cc23)ccc(CC(=O)Nc2cnn(C(C)(C)C)c2)c1F` (single isomer, unassigned) [Compound 441, N-(1-(tert-butyl)-1H-pyrazol-4-yl)-2-(4-((6-(cyclopropanesulfonimidoyl)quinolin-4-yl)oxy)-2-fluoro-3-methylphenyl)acetamide], the IC50 in assay [1] is less than 2.5 nM; in assay [2] (setting [5]) it was 0.2 nM; in assay [3] (Homo sapiens, 16 h), 6 nM; in assay [4], 8 nM.

Turning to `Cc1c(Oc2ccnc3ccc(S(=N)(=O)C4CC4)cc23)ccc(CC(=O)Nc2cnn(C(C)(C)C)c2)c1F` (single isomer, unassigned) [Compound 442, N-(1-(tert-butyl)-1H-pyrazol-4-yl)-2-(4-((6-(cyclopropanesulfonimidoyl)quinolin-4-yl)oxy)-2-fluoro-3-methylphenyl)acetamide], the IC50 was less than 2.5 nM in assay [1], 0.2 nM in assay [2] (HEK-Blue-hNOD2 cells), 7 nM in assay [3] (16 hours) and 3 nM in assay [4].

In the case of `CCS(=O)(=O)c1ccc2nccc(Oc3cc(F)c(CC(=O)Nc4cnn(C(C)(C)C)c4)cc3C)c2c1` [Compound 306, N-(1-(tert-butyl)-1H-pyrazol-4-yl)-2-(4-((6-(ethylsulfonyl)quinolin-4-yl)oxy)-2-fluoro-5-methylphenyl)acetamide], the IC50 is less than 2.5 nM in assay [1]; 1.3 nM in assay [2] (setting [5]); 8 nM in assay [3] (Homo sapiens, 16 h).

Take `CNC(=O)c1ccc2nccc(Oc3cc(F)c(CC(=O)Nc4cnn(C56CC(C5)C6)c4)c(F)c3C)c2c1` [Compound 557, 4-(4-(2-((1-(bicyclo[1.1.1]pentan-1-yl)-1H-pyrazol-4-yl)amino)-2-oxoethyl)-3,5-difluoro-2-methylphenoxy)-N-methylquinoline-6-carboxamide]: the IC50 in assay [1] is less than 2.5 nM; in assay [2] (setting [5]) it was 0.3 nM; in assay [4], 35.1 nM.

With `[2H]C([2H])([2H])NC(=O)c1ccc2nccc(Oc3cc(F)c(CC(=O)Nc4cnn(C56CC(C5)C6)c4)c(F)c3C)c2c1` [Compound 558, 4-(4-(2-((1-(bicyclo[1.1.1]pentan-1-yl)-1H-pyrazol-4-yl)amino)-2-oxoethyl)-3,5-difluoro-2-methylphenoxy)-N-(methyl-d3)quinoline-6-carboxamide], the IC50 in assay [1] was less than 2.5 nM; in assay [2] (setting [5]), 0.7 nM; in assay [4] it was 57.3 nM.

As for `Cc1cc(CC(=O)Nc2cnn(C(C)(C)C)c2)ccc1Oc1ccnc2ccc(CS(C)(=O)=O)cc12` [Compound 560, N-(1-(tert-butyl)-1H-pyrazol-4-yl)-2-(3-methyl-4-((6-((methylsulfonyl)methyl)quinolin-4-yl)oxy)phenyl)acetamide], the IC50 is less than 2.5 nM in assay [1], 8.9 nM in assay [2] (setting [5]) and 301 nM in assay [4].

`Cc1c(Oc2ccnc3ccc(CS(C)(=O)=O)cc23)cc(F)c(CC(=O)Nc2cnn(C(C)(C)C)c2)c1F` [Compound 562, N-(1-(tert-butyl)-1H-pyrazol-4-yl)-2-(2,6-difluoro-3-methyl-4-((6-((methylsulfonyl)methyl)quinolin-4-yl)oxy)phenyl)acetamide]: the figures for the IC50 in assay [1], in assay [2] (setting [5]) and in assay [4] were less than 2.5 nM, 1.2 nM and 61.1 nM, respectively.

Turning to `Cc1cc(CC(=O)Nc2cnn(C(C)(C)C)c2)c(F)cc1Oc1ccnc2ccc(CC(N)=O)cc12` [Compound 566, 2-(4-((6-(2-amino-2-oxoethyl)quinolin-4-yl)oxy)-2-fluoro-5-methylphenyl)-N-(1-(tert-butyl)-1H-pyrazol-4-yl)acetamide], the IC50 in assay [1] is less than 2.5 nM; in assay [2] (setting [5]) it was 11.1 nM; in assay [4] it was 459 nM.

As to `Cc1cc(CC(=O)Nc2cnn(C(C)(C)C)c2)c(F)cc1Oc1ccnc2ccc(C(C)(C)C(N)=O)cc12` [Compound 568, 2-(4-(4-(2-((1-(tert-butyl)-1H-pyrazol-4-yl)amino)-2-oxoethyl)-5-fluoro-2-methylphenoxy)quinolin-6-yl)-2-methylpropanamide], the IC50 is less than 2.5 nM in assay [1], 24.4 nM in assay [2] (setting [5]) and 179 nM in assay [4].

Regarding `Cc1cc(CC(=O)Nc2cnn(C(C)(C)C)c2)c(F)cc1Oc1ccnc2ccc(C(F)(F)C(N)=O)cc12` [Compound 572, 2-(4-(4-(2-((1-(tert-butyl)-1H-pyrazol-4-yl)amino)-2-oxoethyl)-5-fluoro-2-methylphenoxy)quinolin-6-yl)-2,2-difluoroacetamide], the IC50 is less than 2.5 nM in assay [1], 1.1 nM in assay [2] (setting [5]) and 37.2 nM in assay [4].

Consider `CNC(=O)c1cc2c(Oc3c(C)cc(CC(=O)Nc4cnn(C(C)(C)C)c4)cc3C)ccnc2cc1F` [Compound 582, 4-(4-(2-((1-(tert-butyl)-1H-pyrazol-4-yl)amino)-2-oxoethyl)-2,6-dimethylphenoxy)-7-fluoro-N-methylquinoline-6-carboxamide], for which the results for the IC50 in assay [1], in assay [2] (setting [5]) and in assay [4] were less than 2.5 nM, 0.6 nM and 36.3 nM, respectively.

Take `[2H]C([2H])([2H])NC(=O)c1cc2c(Oc3c(C)cc(CC(=O)Nc4cnn(C(C)(C)C)c4)cc3C)ccnc2cc1F` [Compound 583, 4-(4-(2-((1-(tert-butyl)-1H-pyrazol-4-yl)amino)-2-oxoethyl)-2,6-dimethylphenoxy)-7-fluoro-N-(methyl-d3)quinoline-6-carboxamide]: the IC50 in assay [1] was less than 2.5 nM; in assay [2] (setting [5]) it was 1.2 nM; in assay [4], 42.4 nM.

As to `Cc1cc(CC(=O)Nc2cnn(C(C)(C)C)c2)cc(Cl)c1Oc1ccnc2cc(F)c(C(N)=O)cc12` [Compound 584, 4-(4-(2-((1-(tert-butyl)-1H-pyrazol-4-yl)amino)-2-oxoethyl)-2-chloro-6-methylphenoxy)-7-fluoroquinoline-6-carboxamide], the IC50 in assay [1] is less than 2.5 nM; in assay [2] (setting [5]), 1.3 nM; in assay [4], 44.6 nM.

On to `CNC(=O)c1cc2c(Oc3c(C)cc(CC(=O)Nc4cnn(C(C)(C)C)c4)cc3Cl)ccnc2cc1F` [Compound 585, 4-(4-(2-((1-(tert-butyl)-1H-pyrazol-4-yl)amino)-2-oxoethyl)-2-chloro-6-methylphenoxy)-7-fluoro-N-methylquinoline-6-carboxamide], for which the IC50 is less than 2.5 nM in assay [1], 0.9 nM in assay [2] (setting [5]) and 29.3 nM in assay [4].
